Measurements published in patent publication US20230013669A1, “Antibacterial Treatment Using a Cannabinoid and an Active Agent” (priority 2019, published 2023).
Several values for one entry are separate records, joined by “and”; a condition that tells them apart may be missing. Equal values may be shown once.

System: Acinetobacter baumannii ATCC 19606 (GN_034)
Assay: Synergy of cannabidiol with cell-wall disrupting agent (CBD MIC in combination, FICI)
Assay type: cell-based
Settings: for FICI range: CBD with Spero SPR206
Procedure: The compounds were stored short term at 4° C.
Analysis was performed using Microsoft Excel.

[1] = Example 6, GN_034, listed as CBD

## C=C(C)C1CCC(C)=CC1c1c(O)cc(CCCCC)cc1O (stereo not shown) [Cannabidiol, 2-[3-methyl-6-(1-methylethenyl)-2-cyclohexen-1-yl]-5-pentyl-1,3-benzenediol]
1st of 3 experiments
  FICI range: 0.25-8
3rd of 3 experiments
  FICI range: 1.5-16
CBD with Spero SPR206 at 0.25 μg/mL, 1st of 3 experiments, CBD MIC taken as 256 μg/mL
  FICI: 0.5
CBD with Spero SPR206 at 0.25 μg/mL, 3rd of 3 experiments, CBD MIC taken as 256 μg/mL
  FICI: 2
CBD with Spero SPR206 at 0.5 μg/mL, 1st of 3 experiments, CBD MIC taken as 256 μg/mL
  FICI: 1
CBD with Spero SPR206 at 0.5 μg/mL, 3rd of 3 experiments, CBD MIC taken as 256 μg/mL
  FICI: 3
CBD with Spero SPR206 at 1 μg/mL, 1st of 3 experiments, CBD MIC taken as 256 μg/mL
  FICI: 2
CBD with Spero SPR206 at 1 μg/mL, 3rd of 3 experiments, CBD MIC taken as 256 μg/mL
  FICI: 4.004 and 4.002
CBD with Spero SPR206 at 2 μg/mL, 1st of 3 experiments, CBD MIC taken as 256 μg/mL
  FICI: 4
CBD with Spero SPR206 at 2 μg/mL, 3rd of 3 experiments, CBD MIC taken as 256 μg/mL
  FICI: 8
CBD with Spero SPR206 at 4 μg/mL, 1st of 3 experiments, CBD MIC taken as 256 μg/mL
  FICI: 8
CBD with Spero SPR206 at 4 μg/mL, 3rd of 3 experiments, CBD MIC taken as 256 μg/mL
  FICI: 16
CBD with Spero SPR206 at […], 1st of 3 experiments, CBD MIC taken as 256 μg/mL
  FICI: 0.25
CBD with Spero SPR206 at […], 3rd of 3 experiments, CBD MIC taken as 256 μg/mL
  FICI: 1.5
CBD with Ticarcillin at 2 μg/mL, Acinetobacter baumannii ATCC 19606
  FICI: 0.625
CBD with Ticarcillin at 4 μg/mL, Acinetobacter baumannii ATCC 19606
  FICI: 1.0625
CBD with Ticarcillin at 8 μg/mL, Acinetobacter baumannii ATCC 19606
  FICI: 2
CBD with Ticarcillin at 16 μg/mL, Acinetobacter baumannii ATCC 19606
  FICI: 4
CBD with Ticarcillin at 32 μg/mL, Acinetobacter baumannii ATCC 19606
  FICI: 8
CBD with Ticarcillin at 64 μg/mL, Acinetobacter baumannii ATCC 19606
  FICI: 16
CBD with Ticarcillin, Acinetobacter baumannii ATCC 19606
  FICI range (MIC table): 0.63-16
Cefepime at 4 μg/mL
  CBD MIC with Cefepime: 32 µg/mL
Cefepime at 8 μg/mL
  CBD MIC with Cefepime: 16 µg/mL
Cefotetan at 4 μg/mL
  CBD MIC with Cefotetan: >32 µg/mL
Cefotetan at 4 μg/mL, Acinetobacter baumannii ATCC 19606
  CBD MIC with Cefotetan: >256 µg/mL
Cefotetan at 8 μg/mL
  CBD MIC with Cefotetan: >32 µg/mL
Cefotetan at 8 μg/mL, Acinetobacter baumannii ATCC 19606
  CBD MIC with Cefotetan: >256 µg/mL
Cefotetan at 16 μg/mL
  CBD MIC with Cefotetan: >32 µg/mL
Cefotetan at 16 μg/mL, Acinetobacter baumannii ATCC 19606
  CBD MIC with Cefotetan: >256 µg/mL
Cefotetan at 32 μg/mL
  CBD MIC with Cefotetan: >32 µg/mL
Cefotetan at 32 μg/mL, Acinetobacter baumannii ATCC 19606
  CBD MIC with Cefotetan: >256 µg/mL
Cefotetan at 64 μg/mL
  CBD MIC with Cefotetan: >32 µg/mL
Cefotetan at 64 μg/mL, Acinetobacter baumannii ATCC 19606
  CBD MIC with Cefotetan: >256 µg/mL
Cefotetan at 128 μg/mL
  CBD MIC with Cefotetan: >32 µg/mL
Cefotetan at 128 μg/mL, Acinetobacter baumannii ATCC 19606
  CBD MIC with Cefotetan: >256 µg/mL
Ceftazidime at 0.015 μg/mL as headed in Table 64, Acinetobacter baumannii ATCC 19606
  CBD MIC with Ceftazidime: >256 µg/mL
Ceftazidime at 0.031 μg/mL as headed in Table 64, Acinetobacter baumannii ATCC 19606
  CBD MIC with Ceftazidime: >256 µg/mL
Ceftazidime at 0.062 μg/mL as headed in Table 64, Acinetobacter baumannii ATCC 19606
  CBD MIC with Ceftazidime: >256 µg/mL
Ceftazidime at 0.25 μg/mL as headed in Table 64, Acinetobacter baumannii ATCC 19606
  CBD MIC with Ceftazidime: 16 µg/mL
Ceftazidime at 0.5 μg/mL (Table 66), Acinetobacter baumannii ATCC 19606
  CBD MIC with Ceftazidime: >32 µg/mL
Ceftazidime at 0.5 μg/mL as headed in Table 64, Acinetobacter baumannii ATCC 19606
  CBD MIC with Ceftazidime: 0.001 µg/mL
Ceftazidime at 1 μg/mL (Table 66), Acinetobacter baumannii ATCC 19606
  CBD MIC with Ceftazidime: >32 µg/mL
Ceftazidime at 2 μg/mL (Table 66), Acinetobacter baumannii ATCC 19606
  CBD MIC with Ceftazidime: >32 µg/mL
Ceftazidime at 4 μg/mL (Table 66), Acinetobacter baumannii ATCC 19606
  CBD MIC with Ceftazidime: 32 µg/mL
Ceftazidime at 8 μg/mL (Table 66), Acinetobacter baumannii ATCC 19606
  CBD MIC with Ceftazidime: 16 µg/mL
Ceftazidime at 16 μg/mL (Table 66), Acinetobacter baumannii ATCC 19606
  CBD MIC with Ceftazidime: 0.001 µg/mL
Ceftazidime at […] as headed in Table 64, Acinetobacter baumannii ATCC 19606
  CBD MIC with Ceftazidime: 32 µg/mL
Colistin at 0.031 μg/mL, Acinetobacter baumannii ATCC 19606
  CBD MIC with Colistin: 4 µg/mL
Colistin at 0.062 μg/mL, Acinetobacter baumannii ATCC 19606
  CBD MIC with Colistin: 2 µg/mL
Colistin at 0.25 μg/mL, Acinetobacter baumannii ATCC 19606
  CBD MIC with Colistin: 1 µg/mL
Colistin at 1 μg/mL, Acinetobacter baumannii ATCC 19606
  CBD MIC with Colistin: 0.001 µg/mL
Colistin at […], Acinetobacter baumannii ATCC 19606
  CBD MIC with Colistin: 1 µg/mL
Example 1
  activity of cannabidiol in combination with Polymyxin B: effective
Example 1, GN_034, cannabidiol + MCC_006636 (Polymyxin B)
  Average FICI score: 0.135
Example 1, GN_034, cannabidiol + MCC_006636 (Polymyxin B), synergy when FICI≤0.5
  Synergy: YES
Example 2
  activity of cannabidiol combined with cefuroxime: effective
Example 2, GN_034
  CBD MIC with Cefuroxime at concentration 4 μg/mL: >256 µg/mL
  CBD MIC with Cefuroxime at concentration 8 μg/mL: >256 µg/mL
  CBD MIC with Cefuroxime at concentration 16 μg/mL: 32 µg/mL
  CBD MIC with Cefuroxime at concentration 64 μg/mL: 0.0625 µg/mL
  CBD MIC with Cefuroxime at concentration 128 μg/mL: 0.0009766 µg/mL
Example 2, GN_034, listed as CBD
  CBD MIC with Cefuroxime at concentration 32 μg/mL: 16 µg/mL and 32 µg/mL
Example 3
  activity of cannabidiol combined with colistin: effective
Example 3, GN_034
  CBD MIC with Colistin at concentration 0.03125 μg/mL: 4 µg/mL
  CBD MIC with Colistin at concentration 0.0625 μg/mL: 2 µg/mL
  CBD MIC with Colistin at concentration 0.25 μg/mL: 1 µg/mL
  CBD MIC with Colistin at concentration 1 μg/mL: 0.0009766 µg/mL
  CBD MIC with Colistin at concentration […]: 1 µg/mL
Example 4
  activity of cannabidiol combined with octapeptin MCC_006442: effective
Example 5
  activity of cannabidiol combined with aztreonam: effective
  activity of cannabidiol combined with cefepime: effective
Example 5, GN_034
  CBD MIC with Aztreonam at concentration 0.5 μg/mL: >256 µg/mL
  CBD MIC with Aztreonam at concentration 1 μg/mL: >256 µg/mL
  CBD MIC with Aztreonam at concentration 2 μg/mL: >256 µg/mL
  CBD MIC with Aztreonam at concentration 4 μg/mL: 32 µg/mL
  CBD MIC with Aztreonam at concentration 8 μg/mL: 32 µg/mL
  CBD MIC with Aztreonam at concentration 16 μg/mL: 0.0009766 µg/mL
  CBD MIC with Cefepime at concentration 0.25 μg/mL: >256 µg/mL
  CBD MIC with Cefepime at concentration 0.5 μg/mL: >256 µg/mL
  CBD MIC with Cefepime at concentration 1 μg/mL: >256 µg/mL
  CBD MIC with Cefepime at concentration 2 μg/mL: >256 µg/mL
  CBD MIC with Cefepime at concentration 4 μg/mL: 32 µg/mL
  CBD MIC with Cefepime at concentration 8 μg/mL: 16 µg/mL
Example 6
  activity of cannabidiol combined with Polymyxin B: effective
Example 6, GN_034
  CBD MIC with Polymyxin B at concentration 0.015625 μg/mL: >256 µg/mL
  CBD MIC with Polymyxin B at concentration 0.03125 μg/mL: >256 µg/mL
  CBD MIC with Polymyxin B at concentration 0.0625 μg/mL: >256 µg/mL
  CBD MIC with Polymyxin B at concentration 0.5 μg/mL: 0.0009766 µg/mL
[1]
  CBD MIC with Polymyxin B at concentration 0.25 μg/mL: 8 µg/mL and 4 µg/mL
  CBD MIC with Polymyxin B at concentration […]: 16 µg/mL and 8 µg/mL
Example 7
  activity of cannabidiol in combination with octapeptin MCC_006442: effective
Example 12
  activity of cannabidiol combined with cefuroxime: effective
Example 14
  activity of cannabidiol combined with colistin: effective
Example 15
  activity of cannabidiol combined with octapeptin MCC_006442: effective
Example 18
  activity of cannabidiol combined with aztreonam: effective
Example 19
  activity of cannabidiol combined with cefepime: effective
Example 21
  activity of cannabidiol combined with octapeptin C4: effective
Example 22
  activity of cannabidiol in combination with Spero Potentiator SPR741: effective
  activity of cannabidiol in combination with Spero SPR206: effective
Example 23
  activity of cannabidiol in combination with octapeptin FADDI-287: effective
Example 24
  activity of cannabidiol in combination with MCC_8980: effective
Octapeptin C4 at 2 μg/mL, listed as CBD
  CBD MIC with Octapeptin C4: 16 µg/mL
Spero SPR206 at 1 μg/mL, 3rd of 3 experiments, listed as CBD
  CBD MIC with Spero SPR206: 0.5 µg/mL
Ticarcillin at 16 μg/mL, Acinetobacter baumannii ATCC 19606
  CBD MIC with Ticarcillin: 0.001 µg/mL
Ticarcillin at 32 μg/mL, Acinetobacter baumannii ATCC 19606
  CBD MIC with Ticarcillin: 0.001 µg/mL
Ticarcillin at 64 μg/mL, Acinetobacter baumannii ATCC 19606
  CBD MIC with Ticarcillin: 0.001 µg/mL
